Assay results from ChEMBL document CHEMBL5331047 (Eur J Med Chem, 2022).

Experiments:
[1] = molecular target: Neuraminidase (Influenza A virus (strain A/USSR/90/1977 H1N1), UniProt P03469, H274Y)
[2] = Induction of drug resistance in influenza A virus H1N1 expressing neuraminidase I222R mutant assessed as reduction in susceptibility relative to control; format: functional; set-up: scale not given: the % may be the effect or the level left
[3] = Induction of drug resistance in influenza A virus H1N1 expressing neuraminidase S246N mutant assessed as reduction in susceptibility relative to control; format: functional; set-up: scale not given: the % may be the effect or the level left
[4] = Induction of drug resistance in influenza A virus H3N1 expressing neuraminidase N294S mutant assessed as reduction in susceptibility relative to control; format: functional; set-up: scale not given: the % may be the effect or the level left
[5] = test system: Neuraminidase (Influenza A virus (strain A/USSR/90/1977 H1N1)), P03469 [H274Y]; assay: Induction of drug resistance in influenza A virus H1N1 expressing neuraminidase H274Y mutant assessed as reduction in susceptibility relative to control; format: functional; set-up: scale not given: the % may be the effect or the level left

Row | SMILES | IC50 [1] | Activity [2] | Activity [3] | Activity [4] | Activity [5]
1 | CC(=O)N[C@@H]1[C@@H](N)CC(C(=O)O)=C[C@H]1OC1CCSC1 (stereo not given in full) | 68 nM | – | – | – | –
2 | CCOC(=O)C1=C[C@@H](OC(CC)CC)[C@H](NC(C)=O)[C@@H](N)C1 [OSELTAMIVIR] | – | <3.5% | <3.5% | <3.5% | < 3.5%
